Drawing on PubChem BioAssay (NCI), this text covers TGI for 9 compounds.

Structures are written as SMILES.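 A five-concentration, 48-hour dose response in 96-well plates underlies each endpoint, interpolated linearly between surrounding concentrations. TGI denotes the concentration required for complete inhibition of growth.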 Bounds are passed on as bounds.

What all share (experiment): inhibition of tumour cell growth, NCI panel, 48 h
Test [1] relates to HCT-116 colon.
For test [2], the system named is 786-0 renal.
Test [3] concerns A498 renal.
For test [4], the system named is NCI/ADR-RES ovarian.
For test [5], the system named is HL-60(TB) leukemia.
In test [6] the test system is SR leukemia.
For test [7], the system named is SNB-75 CNS.
Test [8] relates to IGROV1 ovarian.
Test [9] deals with TK-10 renal.
Test [10] concerns SF-295 CNS.
The subject of test [11] is CAKI-1 renal.
In test [12] the test system is SNB-19 CNS.
Test [13] relates to MOLT-4 leukemia.
The test system of test [14] is NCI-H460 lung.

As for `COc1ccc(-c2c(CN3CCOCC3)sc3nc4ccccc4n23)cc1`, the TGI was greater than 57 µM in test [1]; greater than 76.8 µM in test [2]; 72.4 µM in test [3]; greater than 42.8 µM in test [4]; greater than 73.2 µM in [5]; 15.1 µM in test [6]. The TGI was greater than 100 µM in test [7]; greater than 86.8 µM in test [8]; greater than 100 µM in [9]; greater than 100 µM in test [10]; greater than 100 µM in test [11]; greater than 57.1 µM in [12]. Also, the TGI was greater than 100 µM in test [13] and 53.5 µM in test [14].
In the case of `O=C1c2c(ccc3c2CCC3)CC12Cc1cc3c(cc1C2)CCC3`, the TGI in test [1], in test [2], in test [3], in test [4], in test [5] and in [6] was greater than 100 µM each time. Moreover, the TGI in [7], in [8], in test [9], in test [10], in test [11] and in test [12] was greater than 100 µM throughout. Moreover, the TGI in test [13] and in test [14] was greater than 100 µM in each case.
In the case of `N#Cc1c(Cl)c2ccccc2n2c1nc1ccccc12`, the TGI in test [1] is 33.5 µM; in test [2], 51 µM; in [3], greater than 100 µM; in test [4] it was 65.6 µM; in test [5] it was 31 µM; in test [6], 77.7 µM. Moreover, the TGI in test [7] was greater than 100 µM; in test [8], 38.7 µM; in [9] it was 36.5 µM; in test [10] it was greater than 100 µM; in [11] it was 51.4 µM; in test [12] it was greater than 100 µM. Besides, the TGI is 75.9 µM in test [13] and greater than 100 µM in [14].
Regarding `CC(=O)OCC1OC(N2C(C)=C(C(C)=O)C(c3ccco3)C(C#N)=C2S)C(OC(C)=O)C(OC(C)=O)C1OC(C)=O` (stereo unspecified), the TGI in [1], in test [2], in test [3], in [4], in test [5] and in test [6] was greater than 100 µM each time. In addition, the TGI in [7], in test [8], in test [9], in test [10], in [11] and in [12] was greater than 100 µM throughout. Also, the TGI in test [13] and in test [14] was greater than 100 µM in each case.
Turning to `CN(/N=C/c1ccccn1)C1=NCCCCN1`, the TGI in [1], in test [2], in test [3], in [4], in test [5] and in [6] was greater than 100 µM throughout. Further, the TGI in test [7], in [8], in test [9], in test [10], in test [11] and in [12] was greater than 100 µM each time. For the same compound, the TGI in [13] and in test [14] was greater than 100 µM each time.
Consider `CCOC(=O)C(NC(=O)CC(C)C)(Nc1ccc(S(=O)(=O)Nc2nc(C)cc(C)n2)cc1)C(F)(F)F` (stereo unspecified), for which the TGI in [1], in test [2], in test [3], in test [4], in test [5] and in test [6] was greater than 100 µM each time. Besides, the TGI in test [7], in test [8], in [9], in [10], in test [11] and in [12] was greater than 100 µM in each case. Moreover, the TGI in test [13] and in test [14] was greater than 100 µM throughout.
On to `CN(C)CCCCN1c2ccccc2Sc2cc(N=[N+]=[N-])ccc21`, for which the TGI in [1] is 3.32 µM; in [2], 3.08 µM; in test [3] it was 22.4 µM; in test [4], 4.07 µM; in test [5], 3.94 µM; in test [6], greater than 100 µM. The TGI in test [7] was found to be 4.8 µM; in test [8], 3.43 µM; in test [9] it was 4.86 µM; in test [10], 4.05 µM; in test [11], 3.73 µM; in test [12] it was 19.9 µM. In addition, the TGI in test [13] worked out at 4.3 µM; in test [14] it was 3.83 µM.
In the case of `CC(=O)NC1C(O)C(O)C(CO)OC1n1ncc(=O)[nH]c1=O` (stereo unspecified), the TGI in test [1], in test [2], in test [3], in test [4], in test [5] and in test [6] was greater than 100 µM throughout. Besides, the TGI in [7], in test [8], in [9], in test [10], in [11] and in test [12] was greater than 100 µM each time. Further, the TGI in test [13] and in [14] was greater than 100 µM throughout.
As to `COc1cccc2c(Nc3ccc(S(=O)(=O)NC(C)=O)cc3)c3ccc([N+](=O)[O-])cc3nc12`, the TGI in test [1] was greater than 100 µM; in test [2], greater than 100 µM; in test [3] it was greater than 100 µM; in [4] it was greater than 100 µM; in test [5], greater than 100 µM; in [6] it was 34.3 µM. Moreover, the TGI was greater than 100 µM in [7]; greater than 86.7 µM in test [8]; greater than 56.7 µM in [9]; greater than 100 µM in test [10]; greater than 100 µM in [11]; greater than 100 µM in test [12]. In addition, the TGI in test [13] was 80.5 µM; in test [14], greater than 100 µM.
